Among the data in the NIST ThermoML archive (doi:10.1016/j.tca.2013.05.015) are speed of sound and mass density values, retold here.

Molecules are shown by their SMILES. ± gives the expanded uncertainty stated by the source.

The conditions of this data set: 101.33 kPa, Liquid; for speed of sound: Sing-around technique in a fixed-path interferometer; for mass density: Vibrating tube method.

Usually speed of sound stands for how fast a sound wave travels through the sample. What is called mass density is mass per unit of volume. As for `CCO` [ethanol], the speed of sound (298.15 K) worked out at 1149 ± 10 m/s, the speed of sound (303.15 K) was found to be 1128 ± 10 m/s, the speed of sound (308.15 K) is reported as 1098 ± 10 m/s and the speed of sound (313.15 K) is reported as 1086 ± 10 m/s. The mass density by setting is: (298.15 K) 785.7 ± 2 kg/m3; (303.15 K) 782 ± 2 kg/m3; (308.15 K) 777.7 ± 2 kg/m3; (313.15 K) 773.6 ± 2 kg/m3.

With `CCOC(C)=O` [ethyl acetate], the speed of sound (298.15 K) was 1141 ± 10 m/s, the speed of sound (303.15 K) is on record as 1118 ± 10 m/s, the speed of sound (308.15 K) stood at 1096 ± 10 m/s and the speed of sound (313.15 K) is 1073 ± 10 m/s. Besides, the mass density is, setting by setting: (298.15 K) 894.4 ± 2 kg/m3; (303.15 K) 888.5 ± 2 kg/m3; (308.15 K) 882.7 ± 2 kg/m3; (313.15 K) 876.3 ± 2 kg/m3.
